Assay results published in patent EP2229935A1, “Peptide derivatives or pharmaceutically acceptable salts thereof, method for producing the same, use of said derivatives and pharmaceutical composition” (Nebolsin, Vladimir Evgenievich, priority 1997, dated 1999).
Counter-ions that a name gives are not always drawn. Like-named read-outs stand apart in the source and are kept apart here. Marks after values point to notes of the source that are not given here.

Experiments:
hydroxyl radical = test: Hydroxyl radical formation in the Fenton reagent (chemiluminescence); format: biochemical
[1] = tested on: Lewis pulmonary carcinoma (LLC); test: Lewis pulmonary carcinoma spontaneous metastasizing, oral administration; format: in vivo; details: BDF1 female mice with LLC, oral 24 days; for Mean number of metastases: day 25
Experimental: Each group included 15 animals. 0.3 ml of LLC tumor tissue suspension was intramuscularly injected to mice. Henks solution was used as a solvent. […] Moscow (1992) 13 pp.]. […]

mongrel male rats [2] = test: Hypolipidemic activity: experimental hyperlipidemia (atherogenic load); details: atherogenic diet, oral last four days; for HDL-CS / LDL-CS+ VLDL-CS / Total CS / Triglycerides: blood; for Kcs: cholesterol index;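 as to all read-outs here: serum drawn 18 h after the final dose from rats deprived of food over that interval, groups of 10 animals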
Experimental: (§2) Hypolipidemic activity of the compounds of general formula (I) was studied on the model of experimental hyperlipidemia [Arichi H., Kumura H.O. Effects of stibens compounds of roots of polygonum cuspidatium on the lipid metabolism. […] Each group of animals included 10 rats. […] Blood samples were taken for analysis 18 hours after the last administration of the test substances during which period food was taken away from rats.
(§3) The following parameters were determined: total cholesterol (total CS); high density lipoprotein cholesterol (HDL-CS); low density lipoprotein cholesterol and very low density lipoprotein cholesterol (LDL-CS and VLDL-CS); triglycerides (TG). Blood serum CS level was determined according to the Ilk method [Biochemical examination in the clinic. […] HDL-CS level was measured in supernatant following heparine-manganese precipitation of LDL+VLDL [Titov V.N., Brener E.D., Khaltaiev N.G., Zadoya A.A., Tvorogova M.G. A method and diagnostic significance of cholesterol level study in α-lipoproteins. […] LDL-CS level determination was carried out by calculation according to the formula presented in the work Friedwald W.T. [Friedwald W.T., Levy K.J., Leus R. Fat transport in lipoproteins: an integrated approach to mechanism and disorders.
(§4) To assess the effect of the test compounds on the ratio of atherogenic and antiatherogenic blood serum lipoproteins, cholesterol index (Kcs) was calculated according to the formula presented in the work [Klimov A.N., Nikulcheva N.G. Lipoproteins, dylipoproteinemias and atherosclerosis.
(§5) Blood serum TG level was determined using the conventional method [Friedwald W.T., Levy R.I., Fredrickson D.S. Estimation of concentration of low-density lipoprotein cholesterol in plasma, without use of preparative ultracentrifuge.

[3] = tested on: hepatic P-450 cytochrome system; test: Hexenal sleep duration in mice; format: in vivo; details: CBF1 mice, oral 3 days, control 25.91 ± 1.57
Experimental: Change in Hexenal sleep (HS) duration is the in vivo measurable index of hepatic P-450 cytochrome system condition.
Studies were carried out on male mice of the lines BALB/c*h75, C57B1/6, CBA, DBA/2, first generation CBF1 and BDF1 hybrides, with initial mass 18-20 g, each group including 10 mice; and on mongrel male guinea pigs with initial mass 250-300 g, each group including 24 animals. All the test compounds (from II to LII) were administered orally in drinking water and for three days at doses 50 and 500 µg/kg. Hexenal hydrochloride at a dose […] of animal mass was administered 24 hours after the last drug administration, except for line BALB/c*h75 mice, which were administered Hexenal at a dose 60 µg/kg at the same terms, and guinea pigs for which Hexenal dose was 30 µg/kg. HS duration was determined in minutes.

[4] = tested on: Lewis pulmonary carcinoma (LLC); test: Lewis pulmonary carcinoma growth; format: in vivo; details: mice with LLC, day 12; for Growth inhibition percent: compound in drinking water; for Tumor volume (mm^3): compound in drinking water from 24 hours after transplantation
Experimental: Experiments were carried out on male mice with initial body mass 18-20 g. Each group included 10 animals. […] Administration of compounds II, III, IX, X, XII, XIV, XV, XVI, XVII, XIX, XXII, XLVII in drinking water was commenced 24 hours following transplantation and continued till the end of experiment. Effect of the compounds on Lewis rat pulmonary carcinoma (LLC) was estimated by day 12 of experiment by change in tumor volume expressed in mm^3.

white mongrel male rats [5] = test: Carrageenan paw edema, cutaneous gel application (series 2); format: in vivo; details: for Volume of paws (conditional units) Right: 0.1 ml of 1% gel on right paw, 4 hours after carrageenan; for Volume of paws (conditional units) left: 1% gel group, left paw; for Volume of paws (conditional units) left / Inflammation inhibition (%) / Volume increment: 4 hours; for Inflammation inhibition (%) / Volume increment: 1% gel
Experimental: (§1) Experiment was carried out on white mongrel male rats weighing 280-300 g. Carrageenan-induced edema was caused according to the method of Winter et al. [[inter et al. In: De Rosa M., Giroud J.P., Willoughby D.A. Studies of the mediators of the acute inflammatory reponse induced in rats in different sites by carrageenan and turpentine. […] Paw volume measurement was done using a plethysmograph (Ugo Basile) 1, 3 and 4 hours after carrageenan administration. Inhibition of inflammatory reaction expressed in percent, was calculated according to the formula: 100-[(R-L(exper.))/(L):(R-L(control))/(L)x100](%) [formula] where R - the right paw volume, L - the left paw volume.
Series 2 of experiment. 2% carrageenan solution was injected sublaterally into paws of rats. In 1 minute 0.1 ml of gel comprising the test compounds were applied on the right paw. Gel base consisted of propylene glycol dissolved in the mixture of water and ethanol. Concentration of the compounds in the gel was 1%. Volume of paws was measured 4 hours after carrageenan administration.

white mongrel male rats [6] = test: Carrageenan paw edema, oral administration (series I); format: in vivo
Experimental: as §1
Series I of experiment. […] The reference drug Naproxene was once administered at a dose 20 µg/kg 1 hour before edema induction. Each group included 10 animals.

superoxide anion-radical = test: Superoxide anion-radical formation in the xantine-xantine oxidase system (chemiluminescence); format: biochemical
Experimental: Effect of the compounds of general formula (I) on change in chemiluminescence (CL) determined by hydroxyl radical ( OH) and superoxide anion-radical (O2-), in the model chemical and enzymatic systems.
5 to 10 ml of the test compounds dissolved in water were at needed concentration introduced into a cuvette. A total sample volume was 0.5 ml. • B. Superoxide anion-radical in the mixture of xantine and xantine oxidase [Afanas'ev I., Suslova T., Cheremisina Z. et al. Study of antioxidant properties of metal aspartates.
Incubation medium comprised 5 mM KH2PO4; 0.2 IU/ml xantine oxidase. Xantine at concentration 1 mM was introduced into sample through a dispencer. Luceginine (0.2 mM) was used in this system as luminiscence sensitizer.
CL signal indication was performed by its integration every 10 seconds for 5 minutes. CL flash recording duration after mixing ingredients, depended on a particular process kinetics. For each system, CL light sum (mV) was determined in the control samples without preparations (I-) and in samples comprising respective concentrations of preparations (I+). To estimate CL inhibition (activation) degree, the I+/I- ratio (in relative units) was found in the studied systems.
AOF formation and effect of the test compounds on this process were recorded on the Luminometer-1251 instrument (LKB, Sweden).
Because of such "distension" of the kinetic curve, chemiluminescence light sum was recorded during the first 3-5 minutes which reflected a total amount of light quantums produced in the system till achieving the maximum CL intensity values.

[7] = tested on: Isolate HIV-1/IV17 of type 1 human immunodeficiency virus; test: Viability of MT-4 cells acutely infected with HIV-1; format: cell-based; details: Human immunodeficiency virus 1, MT4, 168 h, day 7, series 2 (infected cells 24, non-infected 88), read-out: Viability of cells in percent
Experimental: Study was carried out on the culture of human lymphoblastoid cells MT-4. Isolate HIV-1/IV17 of type 1 human immunodeficiency virus from the collection of the D.I.Ivanovsky Institute for Virology was used in experiment. The test compounds of general formula (I): III, VI, VII were introduced into cellular culture at concentrations 1.0; 0.1 and 0.01 µg/ml. The reference drug Azidothymidine was introduced at a dose 0.05 µM/ml. The compounds were introduced into the culture of MT-4 cells at a dose 1000 TCD50 one hour prior to virus introduction. Viability of MT-4 cells was estimated by day 7 of experiment.
Viability of cells was the main efficacy parameter of the test compounds.

[8] = tested on: Strain Aichi of type A human influenza virus; format: in vivo; details: mice, influenza virus; 500 µg/kg
mongrel male rats [9] = details: po, 96 h
Experimental: as §2, §3, §4, §5

mongrel male mice = test: Delayed hypersensitivity induced by picryl chloride (TCB), local ointment; format: in vivo; details: mice, TCB
Experimental: Effect study of the compounds on the delayed type hypersensitivity reaction induced in mice by 2.4.6-trichlorobenzol (TCB) was carried out according to the method of Tarayre et al. [Tarayre J.P., Barbara M., Aliaga M., Tisne-Versilles. Comparative actions of immunosuppressants, glucocorticoids and non-steroidal antiinflammatory drugs on various models of delayed hypersensitivity and on a non-immune inflammation in mice. Arzneim.-Forsch. Drug Res. (1990), Vol. 40, pip.1125-1131].
Studies were conducted on mongrel male mice with initial body mass 30-35 g. Each group included 10 animals. Mice were sensitized with 0.1 ml 3% TCB solution in acetone application on a shaved abdominal area. In 7 days, the anaphylaxis-provoking TCB dose (0.025 ml of 3% solution) was applied on both surfaces of the right ear. In 30 minutes 0.05 ml of the test ointment were rubbed into the same surfaces. 24 hours after edema induction, mice were sacrified, ears were cut off and weighed. Allergic reaction intensity was assessed by change in weight in grams of the right ear (the test one) in relation to the left ear (the control ear).
Allergic reaction inhibition expressed in percent was calculated according to the formula: 100-[(R-L(exper.))/(L):(R-L(control))/(L)x100](%) [formula] where R - the right ear weight, L - the left ear weight.
The test compounds were applied on the ear in the form of 1% and 5% ointment the base of which were 10% methylcellulose solution and propylene glycol at 1:1 ratio.
Groups of animals: • Group 1 - control, ointment base without active substance was applied on the ear of animals. • Group 2 - ointment base comprising 1% compound III was applied on the ear of animals. • Group 3 - ointment base comprising 1% compound XVII was applied on the ear of animals. • Group 4 - ointment base comprising 5% compound XLVIII was applied on the ear of animals.

[10] = 0.01 mM, control of the series as in the table
[11] = 0.1 mM, control of the series as in the table
[12] = 1 mM, control of the series 7839 ± 171, 1120 ± 163, 4974 ± 283 or 1332 ± 172
[13] = intragastral four times 50 µg/kg
[14] = 1 mM, control of the series 5616 ± 173, 5391 ± 195, 7290 ± 128 or 6776 ± 150

SMILES	Chemiluminiscence intensity (mV) + σn-1 (hydroxyl radical; [11])	relative effect: I+/I- (hydroxyl radical; 1 mM)	Chemiluminiscence intensity (mV) + σn-1 (hydroxyl radical; [12])	HDL-CS (mongrel male rats [2]; 50 µg/kg)	Total CS (mongrel male rats [2]; 50 µg/kg)	Triglycerides (mongrel male rats [2]; 50 µg/kg)	HDL-CS (mongrel male rats [2]; 500 µg/kg)	Total CS (mongrel male rats [2]; 500 µg/kg)	Triglycerides (mongrel male rats [2]; 500 µg/kg)	Kcs (mongrel male rats [2]; 50 µg/kg)	Kcs (mongrel male rats [2]; 500 µg/kg)	Growth inhibition percent [4]	Tumor volume (mm^3) [4]	Volume of paws (conditional units) Right (white mongrel male rats [5])	Volume of paws (conditional units) left (white mongrel male rats [5])	Inflammation inhibition (%) (white mongrel male rats [5])	Volume increment (white mongrel male rats [5])	further results
COC(=O)[C@H](Cc1c[nH]cn1)NC(=O)CCCC(=O)O [IX, N-GLUTARYL-L-HISTIDINE METHYL ETHER]	664 ± 47 mV	0.20	225 ± 9 mV	29,7±3,6*^A	78,4±4,4*^A	24,5±20,2	20,1±1,6	72,1±3,9**^A	201.8±8,1***^A	1,64±0,16***^A	2,59±0,17***^A	10%	2372 ± 323 mm^3					relative effect: I+/I- (hydroxyl radical; 0.01 mM): 0.95; Chemiluminiscence intensity (mV) + σn-1 (hydroxyl radical; [10]): 1069 ± 72 mV; relative effect: I+/I- (hydroxyl radical; 0.1 mM): 0.59; Mean number of metastases ([1]; 500 µg/kg): 38.5 ± 5.7*^3; Metastasizing inhibition percent ([1]; 500 µg/kg): 24.0%; LDL-CS+ VLDL-CS (mongrel male rats [2]; 50 µg/kg): 48,7±4,4**^A; LDL-CS+ VLDL-CS (mongrel male rats [2]; 500 µg/kg): 52,0±3,4**^A; Hexenal sleep duration (minutes) ([3]; 50 µg/kg): 16.71 ± 0.94** minutes; Hexenal sleep duration ([3]; 500 µg/kg): 20.76 ± 1.32 min
O=C(O)Cc1ccccc1Nc1c(Cl)cccc1Cl [Voltaren, reference compound]														1.99 ± 0.24 conditional units	1.63 ± 0.26 conditional units	48%	0.40 ± 0.03	
O=C(O)CCC(=O)NCCc1c[nH]cn1 [compound II, N-SUCCINYLHISTAMINE]	693 ± 42 mV	0.16	175 ± 21 mV									61%	1025 ± 150** mm^3					relative effect: I+/I- (hydroxyl radical; 1 µM): 0.86; Chemiluminiscence intensity (mV) + σn-1 (hydroxyl radical; 1 µM, control of the series as in the table): 961 ± 42 mV; relative effect: I+/I- (hydroxyl radical; 0.01 mM): 0.69; Chemiluminiscence intensity (mV) + σn-1 (hydroxyl radical; [10]): 772 ± 44 mV; relative effect: I+/I- (hydroxyl radical; 0.1 mM): 0.62; Mean number of metastases ([1]; 50 µg/kg): 44.3 ± 8.0; Mean number of metastases ([1]; 500 µg/kg): 32.9 ± 4.8*^2; Metastasizing inhibition percent ([1]; 50 µg/kg): 5.5%; Metastasizing inhibition percent ([1]; 500 µg/kg): 30.0%; Inflammation inhibition (%) (white mongrel male rats [6]; [13]): 12%; Volume increment (white mongrel male rats [6]; [13]): 0.64 ±0.05*^!; Volume of paws (conditional units) left (white mongrel male rats [6]; [13]): 1.28 ± 0.28 conditional units; Volume of paws (conditional units) Right (white mongrel male rats [6]; intragastral four times 50 µg/kg 72, 48, 24 and 1 hour before): 1.92 ± 0.65 conditional units; relative effect: 1+/I- (superoxide anion-radical; 0.01 mM): 0.97; Chemiluminiscence intensity (mV) + σn-1 (superoxide anion-radical; [10]): 5229 ± 140 mV; relative effect: 1+/I- (superoxide anion-radical; 0.1 mM): 0.88; Chemiluminiscence intensity (mV) + σn-1 (superoxide anion-radical; [11]): 4753 ± 89 mV; relative effect: 1+/I- (superoxide anion-radical; 1 mM): 0.58; Chemiluminiscence intensity (mV) + σn-1 (superoxide anion-radical; [14]): 3143 ± 156 mV; Hexenal sleep duration (minutes) ([3]; 500 µg/kg): 21.72 ± 1.24* minutes
COC(=O)[C@H](Cc1c[nH]cn1)NC(=O)CC[C@H](N)C(=O)O [compound VII, γ -L-GLUTAMYL-HISTIDINE METHYL ETHER DIHYDROCHLORIDE]	1158 ± 102 mV	0.15	165 ± 7 mV	26,0±1,9	72,3±4,9**^A	250,6±12,0	22,3±2,2	78,1±3,3	251,4±12,71	1,78±0,12***^A	2,5±0,17**^A							relative effect: 1+/I- (superoxide anion-radical; 0.01 mM): 0.91; Chemiluminiscence intensity (mV) + σn-1 (superoxide anion-radical; [10]): 5082 ± 278 mV; relative effect: 1+/I- (superoxide anion-radical; 0.1 mM): 0.72; Chemiluminiscence intensity (mV) + σn-1 (superoxide anion-radical; [11]): 4050 ± 291 mV; relative effect: 1+/I- (superoxide anion-radical; 1 mM): 0.20; Chemiluminiscence intensity (mV) + σn-1 (superoxide anion-radical; [14]): 1114 ± 51 mV; viability at 0.01 µg/mL ([7]; 0.01 µg/ml): 34%; viability at 0.1 µg/mL ([7]; 0.1 µg/ml): 49%; viability at 1 µg/mL ([7]; 1.0 µg/ml): 51%; Hexenal sleep duration (minutes) ([3]; 50 µg/kg): 17.62 ± 0.96* minutes; Hexenal sleep duration (minutes) ([3]; 500 µg/kg): 16.99 ± 1.33* minutes; increase in MLT, survival rate and protection degree [8]: most manifested; LDL-CS+ VLDL-CS (mongrel male rats [9]; 0.05 mg/kg): 46,3±3,2**^A; LDL-CS+ VLDL-CS (mongrel male rats [9]; 0.5 mg/kg): 55,8±3,9**^A
NCCC(=O)NCCc1c[nH]c2ccccc12 [compound XIII]				23,9±1,9	76,3±5,5*^A	201,2±8,7***^A	27,8±2,3*^A	69,3±3,7***^A	190,0±11,7***^A	2,19±0,16***^A	1,49±0,1***^A			2.29 ± 0.18 conditional units	1.82 ± 0.34 conditional units	35%	0.47 ± 0.08	LDL-CS+ VLDL-CS (mongrel male rats [2]; 50 µg/kg): 52,4±3,9**^A; LDL-CS+ VLDL-CS (mongrel male rats [2]; 500 µg/kg): 41,5±2,9***^A
O=C(O)CCCC(=O)NCCc1c[nH]c2ccccc12 [compound XVII, N-GLUTARYLTRYPTAMINE]												48%	1367 ± 233** mm^3					Reaction inhibition (%) (mongrel male mice; 1% ointment): 24%; weight increment (mongrel male mice; 1% ointment): 6.1 ± 0.59 g; Weight of years (g) Right (mongrel male mice; 1% ointment on right ear 30 minutes after challenge, 24 hours): 21.6 ± 1.02 g; Weight of years (g) left (mongrel male mice; left (control) ear of animals given 1% ointment): 15.5 ± 1.02 g
N[C@@H](Cc1c[nH]cn1)C(=O)NCCC(=O)O [compound XXXVI, N-L-HISTIDYL-β-ALANINE]														2.23 ± 0.42 conditional units	1.86 ± 0.16 conditional units	50%	0.37 ± 0.07	
